Reference: patent US20040106802A1, “Novel compounds and therapeutic uses thereof” (TORRENT PHARMACEUTICALS LTD., priority 2002, published 2004)
Structures can show the parent of a compound that is named as a salt.

Target: T1, Porcine DPP-IV (Sus scrofa, UniProt P22411)
T1 construct: purchased Sigma-Aldrich Germany
Test: Assay of DPP-IV enzyme inhibitory activity (spectrophotometric, Gly-Pro-pNA cleavage)
Type: biochemical
Settings: Porcine DPP-IV, Gly-Pro-pNA substrate, 30° C.; mean ± SD of three experiments except compound Nos. 133 & 139; read-out: IC50 (μM) Mean ± SD, inhibitory activity on DPP-IV enzyme activity
Experimental: Assay of DPP-IV Enzyme Inhibitory Activity.
The assay method is a modified method (as described by Welch et al, 1998) based on spectrophotometric determination of the product formed by penultimate proline cleaving activity of the enzyme.
Assay protocol involves incubation of the enzyme dipeptidyl peptidase IV with the test substance at 30° C. for 30 min followed by addition of this reaction mixture to the substrate Gly-Pro-pNA that was equilibrated at 30° C. for 2 min. The enzyme cleaves the substrate at penultimate proline and releases p-nitroanilide, the optical density of which is measured at 385 nm. The formation of p-nitroanilide will be reduced in the presence of inhibitor. […] The activity of molecule is expressed in terms of % inhibition. At least three different concentrations were tried out for each of the test substances. The percentage inhibitions for each of the concentrations were plotted and an IC50 of the test compound was worked out. The enzyme inhibitory activity of different test compounds were compared based on the IC50 values.
The percentage inhibition % I, is calculated using the formula:
% I=[(1−vi/v0)]*100 where vi and v0 are the Vmax values with and without the test substance, respectively.
Substrate solution: 0.5 mM in 45 mM phosphate buffer
Substrate used: Gly-Pro-p-nitroanilide (Source: Sigma-Aldrich Co. Germany)
3.288 mg substrate in 1 ml 45 mM phosphate buffer was prepared as stock solution. 0.25 ml of this stock solution was diluted to 5 ml to get 0.5 mM substrate solution (90 μl to be added in each well). The stock solution of the substrate was used within three days of preparation.
Enzyme solution: Porcine DPP-IV (Sigma-Aldrich Germany) was used throughout the study. 0.4 mU in 80 μl of Tris. HCl buffer was prepared. Fresh solutions were prepared everyday for the assays.
Various concentrations of inhibitor were used: 0.391 μM, 0.781 μM, and 3.125 μM. Solutions of inhibitor were prepared and used on the same day.
280 μl of enzyme solution (0.4-mU/80 μl in Tris HCl buffer) was added to the eppendorf containing 70 μl solution of inhibitor or vehicle and mixed. This reaction mixture was incubated for 30 min at 30° C. The 96 well plate containing substrate solution was thermally equilibrated in the spectrophotometer for 2 min at 30° C. Later 100 μl of the enzyme-inhibitor pre-incubation solution was added to respective wells in a 96 well plate. Each concentration of the inhibitor was tested in triplicates.
The rate of change in UV absorbance (in presence of various concentrations of the inhibitor) was measured at 385 nm, with respect to wells containing only 0.5 mM substrate in 45 mM phosphate buffer as blank at every 10 min for 2 hours after adding enzyme-inhibitor mixture to wells containing substrate solution.

T1 sequence (P22411 whole entry): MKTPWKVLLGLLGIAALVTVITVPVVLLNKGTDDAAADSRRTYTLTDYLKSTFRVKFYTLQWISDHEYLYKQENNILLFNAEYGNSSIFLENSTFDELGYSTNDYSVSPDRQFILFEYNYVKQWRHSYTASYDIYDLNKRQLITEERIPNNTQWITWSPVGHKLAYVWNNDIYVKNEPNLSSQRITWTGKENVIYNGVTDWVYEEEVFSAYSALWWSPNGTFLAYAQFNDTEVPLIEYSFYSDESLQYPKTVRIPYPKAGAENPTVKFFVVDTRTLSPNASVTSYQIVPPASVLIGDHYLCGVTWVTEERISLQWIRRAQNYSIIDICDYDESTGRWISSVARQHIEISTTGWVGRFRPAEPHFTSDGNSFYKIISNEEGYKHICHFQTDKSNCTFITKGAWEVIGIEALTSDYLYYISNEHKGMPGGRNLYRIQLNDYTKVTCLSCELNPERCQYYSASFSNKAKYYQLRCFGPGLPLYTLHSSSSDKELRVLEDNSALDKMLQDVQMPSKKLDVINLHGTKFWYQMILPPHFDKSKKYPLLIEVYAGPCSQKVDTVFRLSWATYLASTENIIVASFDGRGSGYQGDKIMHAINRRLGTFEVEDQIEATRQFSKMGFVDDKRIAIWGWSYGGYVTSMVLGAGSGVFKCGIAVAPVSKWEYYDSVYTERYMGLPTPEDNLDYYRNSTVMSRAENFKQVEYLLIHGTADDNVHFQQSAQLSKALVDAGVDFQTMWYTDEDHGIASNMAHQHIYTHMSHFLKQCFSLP

SMILES | IC50 [µM]
CCNN(CC(=O)N1CSCC1C#N)C(C)C (centres unmarked) [Compound No. 80, 3-[1-Oxo-2-(1-isopropyl-2-ethyl)-hydrazino]-ethyl-4-cyanothiazolidine trifluoroacetate] | 2.27 ± 0.19
N#CC1CSCN1C(=O)CN(N)C1CCN(C(=O)c2cccc(Cl)c2Cl)CC1 (centres unmarked) [Compound No. 70, 3-[1-Oxo-2-(1-(1-(2,3-dichlorophenylcarbonyl)-piperidin-4-yl) hydrazino)]ethyl-4-cyanothiazolidine trifluoroacetate] | 1.79 ± 0.12
N#CC1CCCN1C(=O)CN(N)C1CCN(S(=O)(=O)c2ccc(Cl)cc2)CC1 (centres unmarked) [Compound No. 73, [1-Oxo-2-(1-(1-(4-chlorophenylsulphonyl)-piperidin-4-yl)-hydrazino)]ethyl-2-cyanopyrrolidine trifluoroacetate] | 48.9 ± 1.81
CC(C)NN(CC(=O)N1CCCC1C#N)C1CCCCC1 (centres unmarked) [Compound No. 38, 1-[1-Oxo-2-(1-cyclohexyl-2-isopropyl)hydrazino]ethyl-2-cyano pyrrolidine] | 96.9 ± 23
N#CC1CSCN1C(=O)CN(N)C1CCN(Cc2cccnc2)CC1 (centres unmarked) [Compound No. 57, 3-[1-Oxo-2-(1-(1-(3-pyridinemethyl)-4-piperidinyl) hydrazino)]ethyl-4-cyanothiazolidine tris trifluoroacetate] | 4.77 ± 0.41
N#CC1CSCN1C(=O)CN(N)C1CCN(c2ccc(C(F)(F)F)cn2)CC1 (centres unmarked) [Compound No. 77, 3-[1-Oxo-2-(1-(1-(5-trifluoromethyl-2-pyridinyl)-piperidin-4-yl) hydrazino)]ethyl-4-cyano thiazolidine bis trifluoroacetate] | 0.67 ± 0.06
N#CC1CSCN1C(=O)CN(N)C1CCN(C(=O)CN2CCOCC2)CC1 (centres unmarked) [Compound No. 110, 3-[1-oxo-2-[1-(1-(1-oxo-2-(morpholin-4-yl)ethyl)piperidin-4-yl)]hydrazino]ethyl-4-cyanothiazolidine bis-trifluoroacetate] | 0.83 ± 0.05
N#CC1CSCN1C(=O)CN1CCCCN1 (centres unmarked) [Compound No. 83] | 82 ± 18
CC1CC(N(N)CC(=O)N2CSCC2C#N)CC(C)(C)C1 (centres unmarked) [Compound No. 79, 3-[1-Oxo-2-(1-(3,3,5-trimethylcyclohexyl)-hydrazino)]ethyl-4-cyanothiazolidine trifluoroacetate] | 0.92 ± 0.03
CC(=O)N1CCC(N(N)CC(=O)N2CSCC2C#N)CC1 (centres unmarked) [Compound No. 66, 3-[1-Oxo-2-(1-(1-acetyl)-piperidin-4-yl)hydrazino]ethyl-4-cyanothiazolidine trifluoroacetate] | 1.53 ± 0.01
CS(=O)(=O)NC1CCC(N(N)CC(=O)N2CSCC2C#N)CC1 (centres unmarked) [Compound No. 78, 3-[1-Oxo-2-(1-(1-methanesulphonylamino-4-cyclohexyl) hydrazino)]ethyl-4-cyanothiazolidine trifluoroacetate] | 0.25 ± 0.02
N#CC1CSCN1C(=O)CN(N)C1CCN(CCC(=O)NC2CC2)CC1 (centres unmarked) [compound 132] | 1.77 ± 0.167
CC1CCC(N(N)CC(=O)N2CS(=O)(=O)CC2C#N)CC1 (centres unmarked) [Compound No. 67, 1,1-Dioxo-3-[1-oxo-2-(1-(4-methylcyclohexyl)hydrazino)]ethyl-4-cyanothiazolidine trifluoroacetate] | 72.5 ± 7.05
COC(=O)NN(CC(=O)N1CSCC1C#N)C1CCN(CC(=O)Nc2ccc(Cl)cn2)CC1 (centres unmarked) [compound 133, 3-[1-oxo-2-(1-(1-(2-oxo-2-(5-chloropyridin-2-yl)aminoethyl)piperidine-4-yl)-2-methoxycarbonyl)hydrazino]ethyl-4-cyanothiazolidine, trihydrochloride] | 40.4 ± 6.4
CC(=O)NN(CC(=O)N1CSCC1C#N)C1CCC(C)CC1 (centres unmarked) [Compound No. 74, 3-[1-Oxo-2-(1-(4-methylcyclohexyl)-2-acetyl) hydrazino]ethyl-4-cyanothiazolidine] | 97.7 ± 13.1
N#CC1CCCN1C(=O)CN(N)C1CCCCC1 (centres unmarked) [Compound No. 20, 1-[1-Oxo-2-((1-Cyclohexyl)-hydrazino)]ethyl-2-cyano pyrrolidine trifluoroacetate] | 33.7 ± 0.99

SMILES | IC50 [µM]
CN(CC(=O)N1CSCC1C#N)NC1CCN(Cc2cccnc2)CC1 (centres unmarked) [Compound No. 59, 3-[1-Oxo-2-[1-methyl-2-(1-(3-pyridinylmethyl)-piperidin-4-yl)]hydrazino]ethyl-4-cyanothiazolidine tris trifluoroacetate] | 9.27 ± 0.42
CN(CC(=O)N1CSCC1C#N)NC1CCN(Cc2ccc(C#N)cc2)CC1 (centres unmarked) [Compound No. 58, 3-[1-Oxo-2-[1-methyl-2-(1-(4-cyanophenylmethyl)piperidin-4-yl)]hydrazino]ethyl-4-cyanothiazolidine bis trifluoroacetate] | 17.1 ± 0.3
N#CC1CSCN1C(=O)CN(N)C(=O)N1CCOCC1 (centres unmarked) [Compound No. 43, 3-[1-Oxo-2-(1-(4-morpholinocarbonyl) hydrazino)ethyl]-4-cyanothiazolidine trifluoroacetate] | 38.2 ± 2.56
N#CC1CSCN1C(=O)CN(N)C1CCN(CC(=O)Nc2nccs2)CC1 (centres unmarked) [compound 134, 3-[1-oxo-2-(1-(1-(2-oxo-2-(thiazole-2-yl)-aminoethyl)piperidin-4-yl))hydrazino]ethyl-4-cyanothiazolidine, tris-trifluoroacetate] | 0.205 ± 0.011
N#CC1CSCN1C(=O)CN(N)C12CC3CC(CC(C3)C1)C2 (centres unmarked) [Compound No. 75, 3-[1-Oxo-2-(1-(1-adamantanyl) hydrazino)]ethyl-4-cyanothiazolidine trifluoroacetate] | 0.31 ± 0.05
CC(C)(C)C1CCC(N(N)CC(=O)N2CSCC2C#N)CC1 (centres unmarked) [Compound No. 47, 3-[1-Oxo-2-(1-(4-tert-butylcyclohexyl)hydrazino)]ethyl-4-cyanothiazolidine trifluoro acetate] | 1.14 ± 0.09
CC(C)NN(CC(=O)N1CSCC1C#N)C1CCC(NS(C)(=O)=O)CC1 (centres unmarked) [Compound No. 84, 3-[1-Oxo-2-(1-(1-methanesulphonylamino-4-cyclohexyl)-2-isopropyl) hydrazino]ethyl-4-cyanothiazolidine trifluoroacetate] | 5.78 ± 0.18
N#CC1CSCN1C(=O)CN(N)C1CCN(Cc2ccccc2)CC1 (centres unmarked) [Compound No. 81, 3-[1-Oxo-2-[1-(1-phenylmethyl-piperidin-4-yl)]-hydrazino]-ethyl-4-cyanothiazolidine trifluoroacetate] | 1.63 ± 0.15
CC1CCC(N(CC(=O)N2CSCC2C#N)NC2CCN(Cc3cccnc3)CC2)CC1 (centres unmarked) [Compound No. 53, 3-[1-Oxo-2-[1-(4-methylcyclohexyl)-2-(1-(3-pyridinylmethyl)-4-piperidinyl)]hydrazino]ethyl-4-cyanothiazolidine] | 16.7 ± 2.07
N#CC1CSCN1C(=O)CN(N)C1CCC(NCC(=O)Nc2ccc(Cl)cc2)CC1 (centres unmarked) [Compound No. 113, 3-[1-oxo-2-[1-(4-(2-oxo-2-(4-chlorophenyl)aminoethyl)aminocyclohex-1-yl)]hydrazino]ethyl-4-cyanothiazolidine bis-trifluoroacetate] | 1.06 ± 0.3
CC1CCC(N(CC(=O)N2CSCC2C#N)NC(C)C)CC1 (centres unmarked) [Compound No. 44, 3-[1-Oxo-2-(1-(4-methylcyclohexyl)-2-isopropyl)hydrazino]ethyl-4-cyanothiazolidine trifluoroacetate] | 2.86 ± 0.18
CC1CCC(NNCC(=O)N2CCCC2C#N)CC1 (centres unmarked) [Compound No. 37, 1-[1-Oxo-2-(4-methylcyclohexyl)hydrazino]ethyl-2-cyanopyrrolidine trifluoroacetate] | 28.3 ± 4.6
N#CC1CSCN1C(=O)CN(N)C1CCC(NC(=O)c2ccc(F)cc2)CC1.O=C(O)C(F)(F)F (centres unmarked) [Compound No. 100, 3-[1-oxo-2-[1-(4-fluorobenzoyl)aminocyclohexan-4-yl)]hydrazino]ethyl-4-cyanothiazolidine trifluoroacetate] | 0.93 ± 0.015
N#CC1CSCN1C(=O)CN(N)C1CCNCC1 (centres unmarked) [Compound No. 72, 3-[1-Oxo-2-(1-(4-piperidinyl) hydrazino)]ethyl-4-cyanothiazolidine bis trifluoroacetate] | 12.1 ± 0.13
N#CC1CSCN1C(=O)CN(N)Cc1ccccc1 (centres unmarked) [Compound No. 16, 3-[1-Oxo-2-((1-phenylmethyl)hydrazino)]ethyl-4-cyano thiazolidine trifluoroacetate] | 9.29 ± 0.64
CC1CCC(NN(C)CC(=O)N2CSCC2C#N)CC1 (centres unmarked) [Compound No. 68, 3-[1-Oxo-2-(1-methyl-2-(4-methylcyclohexyl) hydrazino)]ethyl-4-cyanothiazolidine] | 45.3 ± 3.03
